This note sets out measurements from PMC11695965 (Nature Communications, 2025).

Test [1] addresses EcDERA (deoxyribose-5-phosphate aldolase); HSA = its T19S/G171A/V206I mutant (Escherichia coli, UniProt P0A6L0).
Test [2] deals with T1, CkPTA (phosphotransacetylase) (Clostridium kluyveri, UniProt A5N801).
T1 sequence (A5N801 1-333): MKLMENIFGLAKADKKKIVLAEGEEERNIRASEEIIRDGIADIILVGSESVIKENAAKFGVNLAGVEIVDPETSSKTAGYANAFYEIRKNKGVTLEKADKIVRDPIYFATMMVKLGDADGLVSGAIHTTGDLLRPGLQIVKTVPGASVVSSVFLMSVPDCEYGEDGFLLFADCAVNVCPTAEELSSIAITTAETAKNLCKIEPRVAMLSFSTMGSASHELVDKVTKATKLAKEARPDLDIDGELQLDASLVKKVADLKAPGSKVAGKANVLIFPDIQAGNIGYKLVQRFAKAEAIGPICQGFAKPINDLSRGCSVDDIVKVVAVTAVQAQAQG
The experiment in a line: acetyl-CoA formation. Format: biochemical.

Read-outs that look alike come from different tables or passages of the source.

Sequence of EcDERA (deoxyribose-5-phosphate aldolase); HSA = its T19S/G171A/V206I mutant (P0A6L0 whole entry T19S/G171A/V206I): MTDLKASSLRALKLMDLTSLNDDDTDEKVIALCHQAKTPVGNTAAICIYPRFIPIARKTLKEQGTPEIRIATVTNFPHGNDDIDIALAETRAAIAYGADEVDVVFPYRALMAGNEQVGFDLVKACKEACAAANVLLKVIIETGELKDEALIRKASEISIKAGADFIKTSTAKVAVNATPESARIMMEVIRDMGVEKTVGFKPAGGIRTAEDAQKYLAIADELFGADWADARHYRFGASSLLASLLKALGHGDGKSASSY

Take `O=C[C@H](O)[C@H](O)COP(=O)(O)O` [erythrose 4-phosphate]: the “product formation (H6P)” value in test [1] (with glycolaldehyde) is “enzyme for the condensation of glycolaldehyde and E4P to H6P”. Regarding `CC(=O)OP(=O)(O)O` [acetyl phosphate], the acetyl-CoA formation result in test [2] is “CkPTA then converted acetyl phosphate into acetyl-CoA as the output product”.

Turning to `O=CCO` [glycolaldehyde], the “product formation (H6P)” value in test [1] (with erythrose 4-phosphate) was “deoxyribose-5-phosphate aldolase (EcDERA) showing the highest activity”. `CC(=O)SCCNC(=O)CCNC(=O)[C@H](O)C(C)(C)COP(=O)(O)OP(=O)(O)OC[C@H]1O[C@@H](n2cnc3c(N)ncnc32)[C@H](O)[C@@H]1OP(=O)(O)O` [acetyl-CoA]: the acetyl-CoA formation entry in test [2] is recorded as “CkPTA then converted acetyl phosphate into acetyl-CoA as the output product”.
